{
  "source": "paper PMC9820345",
  "about": "“Metal Complexes of a 5-Nitro-8-Hydroxyquinoline-Proline Hybrid with Enhanced Water Solubility Targeting Multidrug Resistant Cancer Cells” (International Journal of Molecular Sciences, 2022)",
  "assay_type_in_all_cases": "physicochemical",
  "key": {"[1]": {"assay": "n-Octanol/water distribution coefficients, shake-flask method", "details": "pH 7.40 (20 mM phosphate buffer); 100 mM chloride; 25.0 °C", "experimental": "The traditional shake-flask method was used to obtain distribution coefficients of the ligands as well as of the complexes in n-octanol/buffered aqueous solution (20 mM phosphate, pH = 7.40 or 10 mM MES, pH 5.50) at different chloride ion concentrations (4, 24 and 100 mM) using UV-vis spectrophotometry (Agilent Cary 8454 diode array spectrophotometer, Santa Clara, CA, USA) for the analysis. The measurement and data evaluation were performed as described in our former work."}, "[2]": {"assay": "Formation constants of Fe(II) complexes by UV-vis spectrophotometric titrations", "details": "I = 0.1 M KCl, 25.0 °C", "experimental": "(§1) UV-vis titrations were performed to determine the formation (overall stability) constants (β) for the complexes of HQNO2-L-Pro formed with Fe(III) and Fe(II) ions (Figures S10 and S11). In the latter case, titrations were performed in a laboratory glove box. The calculations were complicated by the overlapping feature of the ligand bands and the charge transfer bands of the complexes. Based on the absorption spectra Figures S10a and S11a), formation of mono, bis, and tris complexes were found in both chemical systems; obtained constants are collected in Table 2. […] Based on the concentration distribution diagrams (see Figure S10b for Fe(III) and Figure S11b for Fe(II)), it can be concluded that the tris complexes are the dominant species at pH 7.4 in the case of Fe(III), while with Fe(II) both tris and bis-ligand species are formed under the conditions of the titrations.\n(§2) An Agilent Cary 8454 diode array spectrophotometer (Santa Clara, CA, USA) was used to obtain UV-vis spectra in the wavelength range 200–1000 nm, while spectra were recorded for the Fe(II)-containing samples using an Avantes (Avantes B.V., Apeldoorn, The Nederlands) AvaSpec-ULS2048CL-EVO spectrometer with an AvaLight-DHc light source and FDP-7UVIR200-2-VAR transmission dip probe. The titrations for the Fe(II)-containing samples were performed in a laboratory glove box (GP(Campus), Jacomex) (O2 content ≤ 1 ppm). The path length (ℓ) was 1 cm in most cases (the actual ℓ is always indicated in the legends of the figures). The concentrations of the ligands and complexes were between 40 and 200 µM, and 0.2 M KNO3 for the organometallic complexes or 0.1 M KCl for the Fe(II/III), Cu(II), and Zn(II) complexes were used to adjust the constant ionic strength. For HSA containing samples, complex concentrations were 50 µM, and 0.5, and 2 equiv. biomolecules were added for kinetic studies, respectively. For HSA model containing samples, complex concentrations were 50 µM, and the model concentrations were 0–150 µM and 0–500 µM, respectively, and the pH was 7.4 (PBS’). Spectra were always background and baseline corrected. The computer program HypSpec was used to obtain stability constants. Hydrolysis constants of the Fe(III), Fe(II), RuCym, and RhCp* species were included in the speciation models (see Table S4 with the data taken from References)."}, "[3]": {"assay": "Proton dissociation constants (pKa) of the ligand by pH-potentiometric, UV-vis and 1H NMR titrations", "details": "for pKa: 25.0 °C", "experimental": "Characterization of the protonation/deprotonation equilibrium processes of a bioactive molecule is important to reveal its actual chemical form and charge at a given pH. The proton dissociation constant (Ka) is a key physico-chemical parameter since it has an impact on many biopharmaceutical characteristics such as lipophilicity, water solubility, and albumin binding, which in turn directly influences pharmacokinetics. The pKa values of the protonated HQNO2-L-Pro were determined by pH-potentiometric, UV-vis (Figure 1a), and ^1H NMR spectroscopic titrations (Table 1).\nThe pH-potentiometric measurements were carried out at 25.0 ± 0.1 °C in water in the pH range between 2.0 and 11.5 at a constant ionic strength of 0.2 M KNO3. The titrations were performed in a carbonate-free KOH solution (0.20 or 0.10 M). The exact concentrations of HNO3, HCl, and KOH solutions were always determined by pH-potentiometric titrations. An Orion 710A pH-meter equipped with a Metrohm combined electrode (type 6.0234.100) and a Metrohm 665 Dosimat burette were used for the measurements. […] The average water ionization constant (pKw) was determined as 13.76 ± 0.01, which is in good agreement with the literature data. In the case of the titrations in 30% (v/v) DMSO/H2O, the calibration of the pH-potentiometric system was conducted as in our former works. Samples were degassed by bubbling purified argon through them for about 10 min prior to the measurements, and the inert gas was also passed over the solutions during the titrations. Stoichiometry of the species and their equilibrium constants were obtained similarly to that performed in our previous works, with the use of computer program Hyperquad2013 [50].\nas §2\nThe Bruker Avance III HD Ascend 500 Plus instrument (Billerica, MA, USA) was used for NMR studies. ^1H NMR spectroscopic measurements were carried out with a WATERGATE water suppression pulse scheme in the presence of 10% (v/v) D2O/H2O in most cases. DSS internal standard was added to samples to obtain reference peaks. ^1H NMR titrations were carried out for the ligand alone, and for the organometallic complexes in the presence of 0.2 M KNO3. With the AHA and FHA model peptides, the measurements were performed at pH 7.4 (PBS’) at 0.5 or 1 mM metal complex concentrations, and 1:1, 1:2 or 2:1 peptide-to-metal complex ratios were applied. NMR titrations were also performed for the Zn(II)-ligand systems using 0.1 M KCl ionic strength. […]"}, "[4]": {"assay": "Formation constants of Cu(II) complexes by UV-vis spectrophotometric titrations", "details": "I = 0.1 M KCl, 25.0 °C", "experimental": "as §2"}, "[5]": {"assay": "Cyclic voltammetry of the iron complexes", "details": "for E1/2 vs. NHE: iron(III/II)-ligand (1:3), pH 7.40"}, "[6]": {"assay": "Formation constants of Fe(III) complexes by UV-vis spectrophotometric titrations", "details": "I = 0.1 M KCl, 25.0 °C", "experimental": "as §1\nas §2, with “The computer program HypSpec was used to obtain stability constants. Hydrolysis constants of the Fe(III), Fe(II), RuCym, and RhCp* species were included in the speciation models (see Table S4 with the data taken from References).” left out"}},
  "note": "Read-outs that look alike come from different tables or passages of the source.",
  "data": [
    {"smiles": "Cc1ccc(C(C)C)cc1.O=C(O)[C@@H]1CCC[NH+]1Cc1cc([N+](=O)[O-])c2ccc[n+]3c2c1[O][Ru-]3[Cl].[Cl-]", "note": "[RuCym-HQNO2-L-Pro, [RuCym(HQNO2-L-Pro)Cl]Cl]", "values": [
      {"measurement": "log D7.4", "setting": "[1]", "value": "+0.06 ± 0.01"}
    ]},
    {"smiles": "O=C(O)[C@@H]1CCCN1Cc1cc([N+](=O)[O-])c2cccnc2c1O", "note": "[HQNO2-L-Pro, (2S)-1-((8-hydroxy-5-nitroquinolin-7-yl)methyl)pyrrolidin-1-ium-2-carboxylate]", "values": [
      {"measurement": "logβ [M(HL)2]", "setting": "[2]", "value": "32.74 ± 0.03"},
      {"measurement": "logβ [M(HL)3]", "setting": "[2]", "value": "47.60 ± 0.06"},
      {"measurement": "logβ [M(HL)]", "setting": "[2]", "value": "16.52 ± 0.03"},
      {"measurement": "logβ [M(L)]", "setting": "[2]", "value": "8.39 ± 0.03"},
      {"measurement": "pKa", "setting": "[3]; 0.10 M KCl, UV-vis, I = 0.10 M KCl, cligand 40 μM, read-out: pKa (NProH+)", "value": "10.75 ± 0.03"},
      {"measurement": "pKa", "setting": "[3]; 0.10 M KCl, UV-vis, I = 0.10 M KCl, cligand 40 μM, read-out: pKa (OH)", "value": "5.43 ± 0.03"},
      {"measurement": "pKa", "setting": "[3]; 0.20 M KNO3, 1H NMR, I = 0.20 M KNO3, cligand 1000 μM, read-out: pKa (NProH+)", "value": "> 10.5"},
      {"measurement": "pKa", "setting": "[3]; 0.20 M KNO3, 1H NMR, I = 0.20 M KNO3, cligand 1000 μM, read-out: pKa (OH)", "value": "5.56 ± 0.03"},
      {"measurement": "pKa", "setting": "[3]; 0.20 M KNO3, UV-vis, I = 0.20 M KNO3, cligand 40 μM, read-out: pKa (NProH+)", "value": "10.78 ± 0.03"},
      {"measurement": "pKa", "setting": "[3]; 0.20 M KNO3, UV-vis, I = 0.20 M KNO3, cligand 40 μM, read-out: pKa (OH)", "value": "5.5 ± 0.03"},
      {"measurement": "fraction of H2L", "setting": "[3]; pH 5.5", "value": 47, "unit": "%"},
      {"measurement": "fraction of HL−", "setting": "[3]; pH 5.5", "value": 53, "unit": "%"},
      {"measurement": "pKa", "setting": "[3]; water, 0.20 M KNO3, pH-potentiometry, I = 0.20 M KNO3, cligand 1700 μM, read-out: pKa (NProH+)", "value": "10.68 ± 0.07"},
      {"measurement": "pKa", "setting": "[3]; water, 0.20 M KNO3, pH-potentiometry, I = 0.20 M KNO3, cligand 1700 μM, read-out: pKa (OH)", "value": "5.57 ± 0.09"},
      {"measurement": "logβ [M(HL)2]", "setting": "[4]", "value": "38.60 ± 0.03"},
      {"measurement": "logβ [M(HL)(L)]", "setting": "[4]", "value": "31.75 ± 0.03"},
      {"measurement": "logβ [M(HL)]", "setting": "[4]", "value": "19.40 ± 0.03"},
      {"measurement": "logβ [M(L)2]", "setting": "[4]", "value": "22.99 ± 0.03"},
      {"measurement": "logβ [M(L)]", "setting": "[4]", "value": "14.45 ± 0.03"},
      {"measurement": "E1/2 vs. NHE", "setting": "[5]; scan rate 0.005 V/s", "value": "+0.207 V"},
      {"measurement": "E1/2 vs. NHE", "setting": "[5]; scan rate 0.010 V/s", "value": "+0.216 V"},
      {"measurement": "E1/2 vs. NHE", "setting": "[5]; scan rate 0.015 V/s", "value": "+0.218 V"},
      {"measurement": "E1/2 vs. NHE", "setting": "[5]; scan rate 0.020 V/s", "value": "+0.217 V"},
      {"measurement": "E1/2 vs. NHE", "setting": "[5]; scan rate 0.025 V/s", "value": "+0.214 V"},
      {"measurement": "formal potential E'1/2 of the Fe(III)/Fe(II) redox pair of the iron complexes", "setting": "[5]; pH 7.4, 1:3 metal-to-ligand ratio, ciron = 0.5 mM", "value": "+215 ± 5 mV vs. NHE"},
      {"measurement": "logβ [M(HL)2]", "setting": "[6]", "value": "38.76 ± 0.03"},
      {"measurement": "logβ [M(HL)3]", "setting": "[6]", "value": "55.66 ± 0.03"},
      {"measurement": "logβ [M(HL)]", "setting": "[6]", "value": "19.75 ± 0.03"}
    ]}
  ]
}
